Measured values from patent publication US6689801B2, “Certain heteroaryl substituted thiol inhibitors of endothelin-converting enzyme” (Novartis AG, priority 1998, dated 2004).

With `CC(C)C[C@H](S)C(=O)NC1(C(=O)NC(Cc2ccc(-c3ccoc3)nc2)C(=O)O)CCCC1` (stereo in doubt) [Example 2(dd), 3-[6-(Furan-3-yl)-pyridin-3-yl]-2-{[1-(2-mercapto-4-methyl-pentanoylamino)-cyclopentanecarbonyl]-amino}-propanoic acid] the melting point was 190 to 193 °C. `CC(C)C[C@H](S)C(=O)N[C@@H](Cc1ccc(-c2cccs2)nc1)C(=O)N[C@@H](Cc1ccc(-c2cccs2)nc1)C(=O)O` (stereo in doubt) [Example 2(w), 2-{2-(2-Mercapto-4-methyl-pentanoylamino)-3-[6-(thiophen-2-yl)-pyridin-3-yl]-propanoylamino}-3-[6-(thien-2-yl)-pyridin-3-yl]-propionic acid] gave a melting point of 210 to 212 °C. With `CC(C)C[C@H](S)C(=O)N[C@@H](Cc1ccccc1)C(=O)N[C@@H](Cc1ccc(-c2cccs2)nc1)C(=O)O` [Example 2(u), 2-[1-(2-Mercapto-4-methyl-pentanoylamino)-3-phenyl-propionylamino]-3-[6-(thien-2-yl)-pyridin-3-yl]-propionic acid] the melting point was 209 to 210 °C. Work on `O=C(O)[C@H](Cc1ccc(-c2ccsc2)nc1)NC(=O)C1(NC(=O)[C@@H](S)Cc2ccccc2)CCCC1` (stereo in doubt) [Example 2(l), 2-{[1-(2-Mercapto-3-phenyl-propionylamino)-cyclopentanecarbonyl]-amino}-3-[6-(thien-3-yl)-pyridin-3-yl]-propionic acid] yielded a melting point of 208 to 209 °C. In the case of `CC[C@H](C)[C@H](S)C(=O)NC1(C(=O)NC(Cc2ccc(-c3ccccc3)s2)C(=O)O)CCCC1` (stereo in doubt) [Example 1(b), 2-{[1-(2-Mercapto-3-methyl-pentanoylamino)-cyclopentanecarbonyl]-amino}-3-(5-phenyl-thien-2-yl)-propionic acid], the melting point is reported as 131 to 133 °C. Compound `CC(C)C[C@H](S)C(=O)NC1(C(=O)NC(Cc2ccc(-c3nccs3)nc2)C(=O)O)CCCC1` (stereo in doubt) [Example 2(uu), 2-{[1-(2-Mercapto-4-methyl-pentanoylamino)-cyclopentanecarbonyl]-amino}-3-[6-(thiazol-2-yl)-pyridin-3-yl]-propionic acid] has a melting point of 185 to 187 °C. Compound `CC(C)C[C@H](S)C(=O)NC1(C(=O)NC(Cc2ccc(-c3ccco3)nc2)C(=O)O)CCCC1` (stereo in doubt) [Example 2(qq), 3-[6-(Furan-2-yl)-pyridin-3-yl]-2-{[1-(2-mercapto-4-methyl-pentanoylamino)-cyclopentanecarbonyl]-amino}-propionic acid] has a melting point of 200 to 202 °C. Compound `CCCC(S)C(=O)NC1(C(=O)NC(Cc2ccc(-c3cccs3)nc2)C(=O)O)CCCC1.Cl` (stereo not drawn) has a melting point of 165 to 167 °C. In the case of `CC(C)C[C@H](S)C(=O)NC1(C(=O)N[C@@H](Cc2cnc(-c3ccc(F)c(Cl)c3)s2)C(=O)O)CCCC1` (stereo in doubt) [Example 1(f), 3-[2-(3-Chloro-4-fluoro-phenyl)-thiazol-5-yl]-2-{[1-(2-mercapto-4-methyl-pentanoylamino)-cyclopentanecarbonyl]-amino}-propionic acid], the melting point is reported as 96 to 98 °C. Work on `Cc1noc(C)c1-c1nc(CC(NC(=O)C2(NC(=O)[C@@H](S)C(C)C)CCCC2)C(=O)O)no1` (stereo in doubt) [Example 1(g), 3-[5-(3,5-Dimethyl-isoxazol-4-yl)-[1,2,4]oxadiazol-3-yl]-2-{[1-(2-mercapto-3-methyl-butanoylamino)-cyclopentanecarbonyl]-amino}-propionic acid] yielded a melting point of 170 to 172 °C. In the case of `O=C(NC1(C(=O)N[C@@H](Cc2ccc(-c3cccs3)nc2)C(=O)O)CCCC1)C(S)Cc1ccc(O)cc1` (stereo in doubt) [Example 2(v), 2-({1-[3-(4-Hydroxy-phenyl)-2-mercapto-propanoylamino]-cyclopentanecarbonyl}-amino)-3-[6-(thien-2-yl)-pyridin-3-yl]-propionic acid], the melting point is reported as 219 to 220 °C. Work on `CC(C)C[C@H](NC(=O)[C@@H](S)CC(C)C)C(=O)N[C@@H](Cc1ccc(-c2cccs2)nc1)C(=O)O` (stereo in doubt) [Example 2(aa), 2-[2-(2-Mercapto-4-methyl-pentanoylamino)-4-methyl-pentanoylamino]-3-[6-(thien-2-yl)-pyridin-3-yl]-propionic acid] yielded a melting point of 156 to 158 °C. `CC(C)C[C@H](S)C(=O)N[C@@H](Cc1ccc(Br)nc1)C(=O)N[C@@H](Cc1ccc(-c2cccs2)nc1)C(=O)O` (stereo in doubt) [Example 2(bb), 2-[3-(6-Bromo-pyridin-3-yl)-2-(2-mercapto-4-methyl-pentanoylamino)-propionylamino]-3-[6-(thien-2-yl)-pyridin-3-yl]-propionic acid] showed a melting point of 194 to 195 °C. `CC(C)C[C@H](S)C(=O)NC(C)(C)C(=O)N[C@@H](Cc1ccc(-c2cccs2)nc1)C(=O)O` (stereo in doubt) [Example 2(z), 2-[2-(2-Mercapto-4-methyl-pentanoylamino)-2-methyl-propionylamino]-3-[6-(thien-2-yl)-pyridin-3-yl]-propionic acid] showed a melting point of 194 to 196 °C. With `CC[C@H](C)C(S)C(=O)NC1(C(=O)NC(Cc2ccc(-c3ccsc3)nc2)C(=O)O)CCCC1` (stereo in doubt) [Example 2(b), 2-{[1-(2-Mercapto-3-methyl-pentanoylamino)-cyclopentanecarbonyl]-amino}-3-[6-(thien-3yl)-pyridin-3-yl]-propionic acid] the melting point was 200 to 202 °C. Work on `Cc1nc(-c2ccccc2)oc1CC(NC(=O)C1(NC(=O)[C@@H](S)C(C)C)CCCC1)C(=O)O` (stereo in doubt) [Example 1(e), 2-{[1-(2-Mercapto-3-methyl-butanoylamino)-cyclopentanecarbonyl]-amino}-3-(4-methyl-2-phenyl-oxazol-5-yl)-propionic acid] yielded a melting point of 227 to 229 °C. With `CC(C)C[C@H](S)C(=O)NC1(C(=O)NC(Cc2ccc(-c3cccnc3)nc2)C(=O)O)CCCC1` (stereo in doubt) [Example 2(o), 2-{[1-(2-Mercapto-4-methyl-pentanoylamino)-cyclopentanecarbonyl]-amino}-3-[6-(pyridin-3-yl)-pyridin-3-yl]-propanoic acid] the melting point was 165 to 168 °C. For `CC(C)[C@H](S)C(=O)NC1(C(=O)NC(Cc2cc(-c3ccccc3)cs2)C(=O)O)CCCC1` (stereo partly drawn) [Example 1(c), 2-{[1-(2-Mercapto-3-methyl-butanoyllamino)-cyclopentanecarbonyl]-amino}-3-(4-phenyl-thien-2-yl)-propionic acid], the melting point was 158 to 164 °C. Work on `CSCC[C@H](S)C(=O)NC1(C(=O)NC(Cc2ccc(-c3ccco3)nc2)C(=O)O)CCCC1` (stereo in doubt) [Example 2(tt), 3-[6-(Furan-2-yl)-pyridin-3-yl]-2-{[1-(2-mercapto-4-methylthiobutanoylamino)-cyclopentanecarbonyl]-amino}-propionic acid] yielded a melting point of 195 to 197 °C. In the case of `O=C(O)C(Cc1cc(-c2ccccc2)cs1)NC(=O)C1(NC(=O)[C@@H](S)Cc2ccccc2)CCCC1` (stereo in doubt) [Example 1(d), 2-{[1-(2-Mercapto-3-phenyl-propionylamino)-cyclopentanecarbonyl]-amino}-3-(4-phenyl-thien-2-yl)-propionic acid], the melting point is reported as 133 to 136 °C. Work on `CC(C)C[C@H](S)C(=O)NC(C)(C)C(=O)N[C@@H](Cc1ccc(-c2ccsc2)nc1)C(=O)O` (stereo in doubt) [Example 2(k), 2-[2-(2-Mercapto-4-methyl-pentanoylamino)-2-methyl-propionylamino]-3-[6-(thien-3-yl)-pyridin-3-yl]-propionic acid] yielded a melting point of 218 to 220 °C. With `CSCCC(S)C(=O)NC1(C(=O)NC(Cc2ccc(-c3ccoc3)nc2)C(=O)O)CCCC1.Cl` (stereo not drawn) the melting point was 150 to 153 °C. `Cc1noc(C)c1-c1nc(CC(NC(=O)C2(NC(=O)[C@@H](S)CC(C)C)CCCC2)C(=O)O)no1` (stereo in doubt) [Example 1(h), 3-[5-(3,5-Dimethyl-isoxazol-4-yl)-[1,2,4]oxadiazol-3-yl]-2-{[1-(2-mercapto-4-methyl-pentanoylamino)-cyclopentanecarbonyl]-amino}-propionic acid] gave a melting point of 151 to 153 °C. With `CSCC[C@H](S)C(=O)NC1(C(=O)NC(Cc2ccc(-c3cccs3)nc2)C(=O)O)CCCC1` (stereo in doubt) [Example 2(r), 2-{[1-(2-Mercapto-4-methylthio-butanoylamino)-cyclopentanecarbonyl]-amino}-3-[6-(thien-2-yl)-pyridin-3-yl]-propionic acid] the melting point was 175 to 177 °C.
